Assay results published in the supplement of paper PMC10307832.

Legend:
Experiment in all cases: relative viability (nuclei count vs DMSO), 5 days (fraction); higher = more cells survive
IU1-47 + Tozasertib = compound: CC1=CC(=C(N1C2=CC=C(C=C2)Cl)C)C(=O)CN3CCCCC3 [IU1-47] + Cc1cc(Nc2cc(N3CCN(C)CC3)nc(Sc3ccc(NC(=O)C4CC4)cc3)n2)n[nH]1 [Tozasertib] (partner 0.1 µM)
Method in brief: (§1)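 Lung cancer cell lines were pin-tool dosed in 1536-well plates on the day after seeding, with either a lone drug or a fixed anchor-drug dose plus five library-drug doses (not always all listed) in √10 steps. Nuclei were counted on 4× images after 5 days. Relative viability is the ratio of treated-well to vehicle-well nuclei counts, with each value a median of duplicate plates.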

FG-4592 + Linsitinib = compound: Cc1nc(C(=O)NCC(=O)O)c(O)c2ccc(Oc3ccccc3)cc12 [FG-4592] + C[C@]1(O)C[C@@H](c2nc(-c3ccc4ccc(-c5ccccc5)nc4c3)c3c(N)nccn32)C1 [Linsitinib] (partner 1 µM)
Method in brief: as §1

FG-4592 + Palbociclib = compound: Cc1nc(C(=O)NCC(=O)O)c(O)c2ccc(Oc3ccccc3)cc12 [FG-4592] + CC(=O)c1c(C)c2cnc(Nc3ccc(N4CCNCC4)cn3)nc2n(C2CCCC2)c1=O [Palbociclib] (partner 0.5 µM)
Method in brief: as §1

FG-4592 + Navitoclax = compound: Cc1nc(C(=O)NCC(=O)O)c(O)c2ccc(Oc3ccccc3)cc12 [FG-4592] + CC1(C)CCC(c2ccc(Cl)cc2)=C(CN2CCN(c3ccc(C(=O)NS(=O)(=O)c4ccc(N[C@H](CCN5CCOCC5)CSc5ccccc5)c(S(=O)(=O)C(F)(F)F)c4)cc3)CC2)C1 [Navitoclax] (partner 0.5 µM)
Method in brief: as §1

| Cell Line | relative viability (IU1-47 + Tozasertib; first compound 0.08 µM) | relative viability (IU1-47 + Tozasertib; first compound 0.253 µM) | relative viability (IU1-47 + Tozasertib; first compound 0.8 µM) | relative viability (IU1-47 + Tozasertib; first compound 2.53 µM) | relative viability (IU1-47 + Tozasertib; first compound 8 µM) | relative viability (FG-4592 + Linsitinib; first compound 0.08 µM) | relative viability (FG-4592 + Linsitinib; first compound 0.253 µM) | relative viability (FG-4592 + Linsitinib; first compound 0.8 µM) | relative viability (FG-4592 + Linsitinib; first compound 2.53 µM) | relative viability (FG-4592 + Linsitinib; first compound 8 µM) | relative viability (FG-4592 + Palbociclib; first compound 0.08 µM) | relative viability (FG-4592 + Palbociclib; first compound 0.253 µM) | relative viability (FG-4592 + Palbociclib; first compound 0.8 µM) | relative viability (FG-4592 + Palbociclib; first compound 2.53 µM) | relative viability (FG-4592 + Palbociclib; first compound 8 µM) | relative viability (FG-4592 + Navitoclax; first compound 0.08 µM) | relative viability (FG-4592 + Navitoclax; first compound 0.253 µM) | relative viability (FG-4592 + Navitoclax; first compound 0.8 µM) | relative viability (FG-4592 + Navitoclax; first compound 2.53 µM) | relative viability (FG-4592 + Navitoclax; first compound 8 µM) |
| --- | --- | --- | --- | --- | --- | --- | --- | --- | --- | --- | --- | --- | --- | --- | --- | --- | --- | --- | --- | --- |
| NCI-H1975 | 0.925 | 0.85 | 0.719 | 0.882 | 0.487 | 1.01 | 0.902 | 1.01 | 0.96 | 0.752 | 0.511 | 0.534 | 0.53 | 0.437 | 0.379 | 1.21 | 1.1 | 1.29 | 1.1 | 1.06 |
| CAL-12T | 0.408 | 0.326 | 0.34 | 0.318 | 0.287 | 0.709 | 0.798 | 0.836 | 0.775 | 0.716 | 0.554 | 0.339 | 0.386 | 0.336 | 0.442 | 1.22 | 1.18 | 1.33 | 1.05 | 0.764 |
| NCI-H1623 | 0.494 | 0.43 | 0.428 | 0.451 | 0.428 | – | – | – | – | – | – | – | – | – | – | – | – | – | – | – |
| HCC-44 | 1.13 | 1.16 | 0.968 | 0.995 | 1.22 | 0.671 | 0.603 | 0.569 | 0.732 | 0.661 | 0.923 | 0.954 | 0.91 | 0.943 | 0.97 | 1.01 | 0.935 | 0.997 | 1.11 | 1.03 |
| EKVX | 0.418 | 0.433 | 0.367 | 0.341 | 0.349 | 1.01 | 0.916 | 0.948 | 0.989 | 0.989 | 0.358 | 0.398 | 0.355 | 0.401 | 0.29 | 0.848 | 0.813 | 0.855 | 1.09 | 1.04 |
| NCI-H1651 | 0.717 | 0.58 | 0.753 | 0.72 | 0.762 | 0.986 | 0.998 | 0.915 | 1.09 | 0.815 | 0.522 | 0.488 | 0.488 | 0.518 | 0.458 | 1.13 | 0.946 | 1.08 | 1.18 | 0.833 |
| NCI-H1944 | 0.231 | 0.248 | 0.265 | 0.283 | 0.265 | 1.15 | 1.16 | 1.01 | 1.2 | 1.04 | 0.329 | 0.329 | 0.282 | 0.363 | 0.29 | 1.07 | 1.03 | 0.962 | 1.03 | 0.907 |
| NCI-H1703 | – | – | – | – | – | 0.837 | 0.55 | 0.679 | 0.755 | 0.617 | – | – | – | – | – | 1.01 | 0.862 | 1.16 | 1.13 | 1.02 |
| Calu-6 | – | – | – | – | – | 0.863 | 0.942 | 0.941 | 0.859 | 0.993 | – | – | – | – | – | 0.795 | 0.734 | 0.974 | 0.914 | 0.87 |
| EBC-1 | – | – | – | – | – | 0.88 | 0.905 | 0.824 | 0.862 | 0.825 | – | – | – | – | – | 0.469 | 0.389 | 0.425 | 0.493 | 0.397 |
| SW 1573 | 0.17 | 0.167 | 0.176 | 0.184 | 0.143 | 0.732 | 0.714 | 0.893 | 0.721 | 0.782 | 0.342 | 0.368 | 0.382 | 0.31 | 0.238 | 0.771 | 0.933 | 1.02 | 0.937 | 0.803 |
| A-427 | 0.201 | 0.208 | 0.236 | – | 0.212 | 1.06 | 1.05 | 1.06 | 1.14 | 1.1 | 0.502 | 0.489 | 0.562 | 0.553 | 0.591 | 0.829 | 0.739 | 0.802 | 1.08 | 0.914 |
| NCI-H2347 | 0.561 | 0.518 | 0.632 | 0.51 | 0.445 | 1.09 | – | 0.822 | 0.927 | 1.01 | 0.421 | 0.433 | 0.41 | 0.454 | 0.407 | 0.862 | – | 0.648 | 0.804 | 0.897 |
| NCI-H1355 | 0.483 | 0.606 | 0.506 | – | 0.546 | 0.87 | 0.778 | – | 0.843 | 0.736 | 0.394 | 0.38 | – | 0.382 | 0.356 | 1.08 | 0.94 | – | 0.901 | 0.862 |
| NCI-H358 | 0.089 | 0.103 | 0.0989 | 0.0928 | 0.0979 | 0.723 | 0.679 | 0.73 | 0.681 | 0.605 | 0.114 | 0.141 | 0.128 | 0.128 | 0.136 | – | – | – | – | – |
| PC-3 [JPC-3] | 0.913 | 0.903 | 0.922 | 0.851 | 0.773 | 0.965 | 0.974 | 0.969 | 1.04 | 1.01 | 0.55 | 0.542 | – | 0.557 | 0.567 | 0.778 | 0.823 | 0.829 | 0.875 | 0.859 |
| NCI-H2228 | 0.267 | 0.303 | 0.246 | 0.198 | 0.249 | 0.586 | 0.628 | 0.795 | 0.612 | 0.727 | 0.678 | 0.762 | 0.603 | 0.89 | 0.421 | 0.949 | 0.663 | 0.896 | 0.832 | 0.819 |
| HOP-62 | 0.351 | 0.404 | 0.384 | 0.412 | 0.354 | 0.947 | 1.03 | 0.921 | 1.03 | 0.931 | 0.393 | 0.439 | 0.365 | 0.407 | 0.37 | 1.04 | 1.01 | 1.2 | 0.983 | 1.03 |
| HARA | 0.0876 | 0.0862 | 0.0879 | – | 0.0969 | 0.955 | 0.881 | – | 0.996 | 1.03 | 0.276 | 0.191 | 0.261 | 0.286 | 0.25 | 1.15 | 1.09 | – | 1.13 | 1.15 |
